Experimental data published in US20110212968A1, “PHENETHYLAMIDE DERIVATIVES AND THEIR HETEROCYCLIC ANALOGUES” (priority 2008, published 2011).

Experiments:
human orexin-1 receptor = molecular target: T1, human orexin-1 receptor (Homo sapiens, UniProt O43613); test: Intracellular calcium measurement (FLIPR Tetra), orexin receptor antagonistic activity, OX1; type: cell-based; settings: CHO cells expressing human orexin-1 receptor, 3 nM orexin-A, conditions B, normalized (*) using IC50 of on-plate reference compound
T1 construct: expressed in transfected cells; host or cells: CHO (Chinese hamster ovary) cells, kept under G418 selection
T1 sequence (O43613 1-425): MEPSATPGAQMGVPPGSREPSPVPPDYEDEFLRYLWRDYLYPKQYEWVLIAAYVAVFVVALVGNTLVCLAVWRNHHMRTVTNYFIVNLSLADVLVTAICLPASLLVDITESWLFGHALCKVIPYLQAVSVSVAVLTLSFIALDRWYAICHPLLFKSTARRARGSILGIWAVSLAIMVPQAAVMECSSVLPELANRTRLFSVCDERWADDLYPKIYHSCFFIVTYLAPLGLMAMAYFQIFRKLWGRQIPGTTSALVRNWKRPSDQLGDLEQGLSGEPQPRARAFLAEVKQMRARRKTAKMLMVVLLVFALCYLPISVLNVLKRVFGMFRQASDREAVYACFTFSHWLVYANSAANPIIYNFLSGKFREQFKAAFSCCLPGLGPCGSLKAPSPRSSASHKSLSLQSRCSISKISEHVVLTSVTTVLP
Outline: (§1)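 Recombinant CHO cells expressing human OX1 or OX2, loaded with fluo-4 AM plus probenecid, were preincubated with antagonist 10 min, then stimulated with 3 nM human orexin-A. Peak fluorescence was compared with vehicle; IC50 derived, sometimes normalized to an on-plate reference compound; two pipetting/cell-splitting conditions were used.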

human orexin-2 receptor = molecular target: T2, human orexin-2 receptor (Homo sapiens, UniProt O43614); test: Intracellular calcium measurement (FLIPR Tetra), orexin receptor antagonistic activity, OX2; type: cell-based; settings: CHO cells expressing human orexin-2 receptor, 3 nM orexin-A, conditions B, normalized (*) using IC50 of on-plate reference compound
T2 construct: expressed in transfected cells; host or cells: CHO (Chinese hamster ovary) cells, kept under G418 selection
T2 sequence (O43614 1-444): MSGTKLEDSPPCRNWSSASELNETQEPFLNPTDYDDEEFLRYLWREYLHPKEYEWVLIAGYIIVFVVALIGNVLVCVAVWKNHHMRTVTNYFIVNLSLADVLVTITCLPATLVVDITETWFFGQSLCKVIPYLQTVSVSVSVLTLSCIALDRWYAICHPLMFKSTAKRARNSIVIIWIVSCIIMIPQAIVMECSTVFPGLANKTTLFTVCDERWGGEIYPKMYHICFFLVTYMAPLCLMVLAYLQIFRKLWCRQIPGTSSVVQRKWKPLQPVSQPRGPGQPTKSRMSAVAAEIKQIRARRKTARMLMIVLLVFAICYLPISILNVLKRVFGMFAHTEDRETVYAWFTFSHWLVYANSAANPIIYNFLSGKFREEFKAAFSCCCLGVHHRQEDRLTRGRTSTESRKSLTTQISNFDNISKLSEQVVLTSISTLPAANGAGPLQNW
Outline: as §1

| Compound | IC50 (human orexin-1 receptor) [µM] | IC50 (human orexin-2 receptor) [µM] |
| --- | --- | --- |
| O=C(c1ncccc1-c1cnc2ccccc2c1)N(CCc1c[nH]c2ccc(F)cc12)CC1CC1 [Example 404, 3-Quinolin-3-yl-pyridine-2-carboxylic acid cyclopropylmethyl-[2-(5-fluoro-1H-indol-3-yl)-ethyl]-amide] | 0.058 | 0.012 |
| COc1ccc(-c2sc(C)nc2C(=O)N(CCc2c[nH]c3ccc(F)cc23)CC2CC2)cc1C [Example 410, 5-(4-Methoxy-3-methyl-phenyl)-2-methyl-thiazole-4-carboxylic acid cyclopropylmethyl-[2-(5-fluoro-1H-indol-3-yl)-ethyl]-amide] | 3.65 | 0.145 |
| Cc1nc(C(=O)N(CCc2c[nH]c3ccc(F)cc23)CC2CC2)c(-c2ccc(F)c(CO)c2)s1 [Example 418, 5-(4-Fluoro-3-hydroxymethyl-phenyl)-2-methyl-thiazole-4-carboxylic acid cyclopropylmethyl-[2-(5-fluoro-1H-indol-3-yl)-ethyl]-amide] | 0.148 | 0.013 |
| Cc1nc(C(=O)N(CCc2c[nH]c3ccc(F)cc23)CC2CC2)c(-c2ccc(C#N)c(F)c2)s1 [Example 419, 5-(4-Cyano-3-fluoro-phenyl)-2-methyl-thiazole-4-carboxylic acid cyclopropylmethyl-[2-(5-fluoro-1H-indol-3-yl)-ethyl]-amide] | 2.51 | 0.1 |
| COc1nccc(-c2sc(C)nc2C(=O)N(CCc2c[nH]c3ccc(F)cc23)CC2CC2)c1Cl [Example 420, 5-(3-Chloro-2-methoxy-pyridin-4-yl)-2-methyl-thiazole-4-carboxylic acid cyclopropylmethyl-[2-(5-fluoro-1H-indol-3-yl)-ethyl]-amide] | 0.373 | 0.083 |
| COc1ccc(-c2sc(C)nc2C(=O)N(CCc2c[nH]c3ccc(F)cc23)CC2CC2)cn1 [Example 421, 5-(6-Methoxy-pyridin-3-yl)-2-methyl-thiazole-4-carboxylic acid cyclopropylmethyl-[2-(5-fluoro-1H-indol-3-yl)-ethyl]-amide] | 0.034 | 0.004 |
| Cc1nc(C(=O)N(CCc2c[nH]c3ccc(F)cc23)CC2CC2)c(-c2ccc(CO)nc2)s1 [Example 423, 5-(6-Hydroxymethyl-pyridin-3-yl)-2-methyl-thiazole-4-carboxylic acid cyclopropylmethyl-[2-(5-fluoro-1H-indol-3-yl)-ethyl]-amide] | 1.61 | 0.053 |
| CSc1cncc(-c2sc(C)nc2C(=O)N(CCc2c[nH]c3ccc(F)cc23)CC2CC2)c1 [Example 424, 2-Methyl-5-(5-methylsulfanyl-pyridin-3-yl)-thiazole-4-carboxylic acid cyclopropylmethyl-[2-(5-fluoro-1H-indol-3-yl)-ethyl]-amide] | 0.18 | 0.047 |
| Cc1cncc(-c2sc(C)nc2C(=O)N(CCc2c[nH]c3ccc(F)cc23)CC2CC2)c1 [Example 426, 2-Methyl-5-(5-methyl-pyridin-3-yl)-thiazole-4-carboxylic acid cyclopropylmethyl-[2-(5-fluoro-1H-indol-3-yl)-ethyl]-amide] | 0.292 | 0.05 |
| Cc1nc(C(=O)N(CCc2c[nH]c3ccc(F)cc23)CC2CC2)c(-c2cnc3ccccc3c2)s1 [Example 428, 2-Methyl-5-quinolin-3-yl-thiazole-4-carboxylic acid cyclopropylmethyl-[2-(5-fluoro-1H-indol-3-yl)-ethyl]-amide] | 0.083 | 0.018 |
| Cc1nc(C(=O)N(CCc2c[nH]c3ccc(F)cc23)CC2CC2)c(-c2ccc3cc[nH]c3c2)s1 [Example 430, 5-(1H-Indol-6-yl)-2-methyl-thiazole-4-carboxylic acid cyclopropylmethyl-[2-(5-fluoro-1H-indol-3-yl)-ethyl]-amide] | 0.104 | 0.021 |
| Cc1cccc(-c2sc(CN)nc2C(=O)N(CCc2c[nH]c3ccc(F)cc23)CC2CC2)c1 [Example 433, 2-Aminomethyl-5-m-tolyl-thiazole-4-carboxylic acid cyclopropylmethyl-[2-(5-fluoro-1H-indol-3-yl)-ethyl]-amide] | 0.28 | 0.239 |

Now from value to molecule:

| IC50 (human orexin-1 receptor) [µM] | IC50 (human orexin-2 receptor) [µM] | Compound |
| --- | --- | --- |
| > 5.42 | 0.816 | Cc1ccc(-c2nccnc2C(=O)N(CCN)CCc2c[nH]c3ccc(F)cc23)cc1C [Example 434, 3-(3,4-Dimethyl-phenyl)-pyrazine-2-carboxylic acid (2-amino-ethyl)-[2-(5-fluoro-1H-indol-3-yl)-ethyl]amide] |
| 0.054 | 0.032 | CNc1nc(C(=O)N(CCc2c[nH]c3ccc(F)cc23)CC2CC2)c(-c2cccc(C)c2)s1 [Example 435, 2-Methylamino-5-m-tolyl-thiazole-4-carboxylic acid cyclopropylmethyl-[2-(5-fluoro-1H-indol-3-yl)-ethyl]amide] |
| 0.024 | 0.002 | COc1ccc(-c2nccnc2C(=O)N(CCc2c[nH]c3c(C)cccc23)CC2CC2)cc1 [Example 436, 3-(4-Methoxy-phenyl)-pyrazine-2-carboxylic acid cyclopropylmethyl-[2-(7-methyl-1H-indol-3-yl)-ethyl]-amide] |
| 0.043 | 0.003 | COc1ccc(-c2nccnc2C(=O)N(CCc2c[nH]c3c(C)cccc23)CC2CC2)cn1 [Example 437, 3-(6-Methoxy-pyridin-3-yl)-pyrazine-2-carboxylic acid cyclopropylmethyl-[2-(7-methyl-1H-indol-3-yl)-ethyl]-amide] |
| > 11.1 | 0.05 | Cc1cccc2c(CCN(CC3CC3)C(=O)c3nccnc3-c3cncnc3)c[nH]c12 [Example 438, 3-Pyrimidin-5-yl-pyrazine-2-carboxylic acid cyclopropylmethyl-[2-(7-methyl-1H-indol-3-yl)-ethyl]-amide] |
| 0.461 | 0.028 | COc1ncc(-c2nccnc2C(=O)N(CCc2c[nH]c3c(C)cccc23)CC2CC2)cn1 [Example 439, 3-(2-Methoxy-pyrimidin-5-yl)-pyrazine-2-carboxylic acid cyclopropylmethyl-[2-(7-methyl-1H-indol-3-yl)-ethyl]-amide] |
| 6 | 0.214 | COc1cccc2c(CCN(CC3CC3)C(=O)c3nccnc3-c3cccc(C(F)(F)F)c3)c[nH]c12 [Example 444, 3-(3-Trifluoromethyl-phenyl)-pyrazine-2-carboxylic acid cyclopropylmethyl-[2-(7-methoxy-1H-indol-3-yl)-ethyl]-amide] |
| 0.097 | 0.025 | O=C(c1cncnc1-c1ccccc1)N(CCc1c[nH]c2cc(F)c(Cl)cc12)CC1CC1 [Example 471, 4-Phenyl-pyrimidine-5-carboxylic acid [2-(5-chloro-6-fluoro-1H-indol-3-yl)-ethyl]-cyclopropylmethyl-amide] |
| 0.028 | 0.211 | CN(C)c1nc(C(=O)N(CCc2c[nH]c3cc(F)c(Cl)cc23)CC2CC2)c(-c2ccccc2)s1 [Example 472, 2-Dimethylamino-5-phenyl-thiazole-4-carboxylic acid [2-(5-chloro-6-fluoro-1H-indol-3-yl)-ethyl]-cyclopropylmethyl-amide] |
| 1.38 | 0.048 | COc1ccc2[nH]cc(CCN(CC3CC3)C(=O)c3cnc(C)nc3-c3ccccc3)c2c1C [Example 479, 2-Methyl-4-phenyl-pyrimidine-5-carboxylic acid cyclopropylmethyl-[2-(5-methoxy-4-methyl-1H-indol-3-yl)-ethyl]-amide] |
| 0.227 | 0.01 | O=C(c1cncnc1-c1ccccc1)N(CCc1c[nH]c2ccccc12)CC1CC1 [Example 497, 4-Phenyl-pyrimidine-5-carboxylic acid cyclopropylmethyl-[2-(1H-indol-3-yl)-ethyl]-amide] |
| 0.257 | 0.19 | CCN(C)c1nc(C(=O)N(CCc2c[nH]c3ccccc23)CC2CC2)c(-c2ccccc2F)s1 [Example 500, 2-(Ethyl-methyl-amino)-5-(2-fluoro-phenyl)-thiazole-4-carboxylic acid cyclopropylmethyl-[2-(1H-indol-3-yl)-ethyl]-amide] |
| 0.246 | 0.33 | CCC(=O)Nc1ccc(-c2sc(C)nc2C(=O)N(CCc2c[nH]c3ccccc23)CC2CC2)cc1 [Example 501, 2-Methyl-5-(4-propionylamino-phenyl)-thiazole-4-carboxylic acid cyclopropylmethyl-[2-(1H-indol-3-yl)-ethyl]-amide] |
